# Reference: patent US9315531B2, “Titanocene-gold derivatives comprising thiolato ligands” (Research Foundation of the City University of New York, priority 2014, dated 2016)
# Legend:
# [1] = system: Caki-1 renal carcinoma; assay: Caki-1 xenografts in mice, tumor growth
# Description: Study of the effects of 2 in Caki-1 xenografts in mice: twelve female NOD.CB17-Prkdc scid/J (non-obese diabetic—severe combined immunodeficiency) from Jackson Laboratory (Bar Harbor, Me. and Sacramento, Calif., USA) were used for the xenograft experiment (ages 8 to 12 weeks and weighing 19-22 g) were used. Each mouse received 8×10^6 tumor cells subcutaneously without anesthesia. Exponentially growing Caki-1 human kidney cancer cells were suspended in 1:1 ratio 50 μl phosphate-buffered saline (PBS; pH 7.4) plus 50 μl of matrigel (BD Biosciences, San Jose, Calif., USA) were injected subcutaneously on both left and right flank of each mice. The diameter of the tumors was measured once weekly using an electronic digital caliper and the tumor volume (TV) was calculated according to the empirical equation TV=(a)(b^2)×π/6 where a=longest dimension; b=largest dimension orthogonal to a. The median volumes of each group were normalized to the initial tumor volume resulting in the relative tumor volume. […] Treatment started when tumors were palpable (about 6 mm diameter). Mice were randomized to treatment groups based on their starting tumor burden at twelve weeks of age to ensure equivalent distribution between the three groups. At trial end-point the mice were sacrificed and tumors measured again after excision and then processed for further analysis. Histological as well as biochemical evaluations of blood, liver, spleen, and kidney, were conducted.
# [2] = system: HEK-293T; assay: Cell viability assay (XTT), HEK-293T; type: cell-based; settings: 72 h incubation; non-tumorigenic human embryonic kidney cell line
# Description: HEK-293T cells were newly purchased from ATCC (Manassas, Va., USA) and maintained in Dulbecco's modified Eagle's medium (DMEM) (Mediatech) supplemented with 10% FBS, 1% NEAA and 1% PenStrep. […] All cells were cultured at 37° C. and 5% CO2 in a humidified incubator.
# [3] = system: RPTC; assay: Cell viability assay (XTT), RPTC; type: cell-based; settings: 72 h incubation; human renal proximal tubular cells
# Description: Cell Culture: Human renal cell carcinoma lines A498, Caki-1 and UO31, as well as the human prostate carcinoma cell lines DU145 and PC3 were newly obtained for these studies from the American Type Culture Collection (ATCC) (Manassas, Va., USA) and cultured in Roswell Park Memorial Institute (RPMI-1640) (Mediatech Inc., Manassas, Va.) media containing 10% fetal bovine serum (FBS, Life Technologies, Grand Island, N.Y.), 1% Minimum Essential Media (MEM) nonessential amino acids (NEAA, Mediatech) and 1% penicillin-streptomycin (PenStrep, Mediatech). HEK-293T cells were newly purchased from ATCC (Manassas, Va., USA) and maintained in Dulbecco's modified Eagle's medium (DMEM) (Mediatech) supplemented with 10% FBS, 1% NEAA and 1% PenStrep. Normal human renal epithelial cells (RPTC) were purchased from Lifeline Cell Technology (Lifeline Cell Technology, Frederick, Md., USA) and maintained in Lifeline's Renal Life Medium from Lifeline Cell Technology supplemented with 2.4 mM L-glutamine, 5 μg/mL rh insulin, 1.0 nM epinephrine, 10 nM triiodothyronine, 0.1 μg/mL hydrocortisone hemisuccinate, 10 ng/mL rhEGF, 0.50% FBS, 5 μg/mL transferrin PS. All cells were cultured at 37° C. and 5% CO2 in a humidified incubator.
# (§1) Cell Viability Assay: Cells were seeded at a concentration of 5000 cells/90 μl per well of either RPMI or DMEM without phenol red and without antibiotics, supplemented with 10% FBS and 2 mM L-glutamine into tissue culture grade 96-well flat bottom microplates (BioLite Microwell Plate, Fisher Scientific, Waltham, Mass., USA) and grown for 24 h at 37° C. in a humidified incubator. Afterwards, the intermediate dilutions of the compounds were added to the wells (10 μL) to obtain a final concentration ranging from 0.1 to 200 μM, and the cells were incubated for 24 h or 72 h. […] The optical absorbance of each well in a 96-well plate was quantified using BioTek ELx808 absorbance microplate reader (BioTek Winooski, Vt.) set at 450 nm wavelength. The percentage of surviving cells was calculated from the ratio of absorbance of treated to untreated cells.
# [4] = system: UO31; assay: Cell viability assay (XTT), UO31; type: cell-based, human; settings: 72 h
# Description: Cell Culture: Human renal cell carcinoma lines A498, Caki-1 and UO31, as well as the human prostate carcinoma cell lines DU145 and PC3 were newly obtained for these studies from the American Type Culture Collection (ATCC) (Manassas, Va., USA) and cultured in Roswell Park Memorial Institute (RPMI-1640) (Mediatech Inc., Manassas, Va.) media containing 10% fetal bovine serum (FBS, Life Technologies, Grand Island, N.Y.), 1% Minimum Essential Media (MEM) nonessential amino acids (NEAA, Mediatech) and 1% penicillin-streptomycin (PenStrep, Mediatech). HEK-293T cells were newly purchased from ATCC (Manassas, Va., USA) and maintained in Dulbecco's modified Eagle's medium (DMEM) (Mediatech) supplemented with 10% FBS, 1% NEAA and 1% PenStrep. […]
# as §1, with “incubator.” for “incubator. Afterwards, the intermediate dilutions of the compounds were added to the wells (10 μL) to obtain a final concentration ranging from 0.1 to 200 μM, and the cells were incubated for 24 h or 72 h.”
# [5] = Stability in solution (DMSO-d6, CDCl3, DMSO/PBS); type: physicochemical
# Description: (§2) Both compound 2 and compound 3 were less acidic than titanocene dichloride and were soluble in DMSO/water, DMSO/PBS and DMSO/media (1:99) mixtures at micromolar concentrations. These compounds were unusually stable methyl-containing titanocene moieties that were stable as solids at room temperature, while exposed to air in CDCl3 solution for at least five days.
# [6] = Solubility in DMSO/aqueous mixtures; type: physicochemical; settings: at micromolar concentrations
# Description: as §2
# [7] = system: p90-RSK; assay: Protein kinase expression in Caki-1 whole cell lysates, p90-RSK; type: cell-based, human; settings: Caki-1, 5 μM, by 12 hours post-treatment
# Description: Whole cell lysates of Caki-1 cells treated with compounds 2 or 6 were also evaluated for their effects on the expression levels of selected protein kinases, namely p90-RSK, AKT and MAPKAPK3. […] Because all three enzymes have been implicated in promoting cell migration and therefore are strong targets for anti-metastasis drugs, these findings predict that compound 2 would be effective in controlling metastatic potential of renal tumors.
# Cell lysis and immunoblotting: Caki-1 cells were seeded into 10-cm dishes at a density of 2.2×10^6 and incubated for 24 hours. […]
# The protein concentration was determined with BCA protein dye reagent (Pierce, Fisher Scientific Pittsburgh, Pa.). Samples were denatured with 5×SDS sample buffer (0.25% bromophenol blue, 0.5 M dithiothreitol (DTT), 50% glycerol 50% (v/v), 10% sodium dodecyl sulfate (SDS) followed by heating at 95° C. for 5 minutes. Proteins were separated by SDS-PAGE, transferred to a PVDF membrane (Millipore Corp.), and probed with MAPKAPK-3 antibody (Cell Signaling Technology, Danvers, Mass., USA), as well as β-actin antibody (Cell Signaling Technology, Danvers, Mass., USA). Immunoreactive bands of primary antibodies were detected using HRP goat anti-rabbit and secondary antibodies were detected with peroxidase-conjugated secondary antibody and detected by chemiluminescence (Pierce Biotechnology, Rockford, Ill.).
# [8] = system: thioredoxin reductase
# Description: After 5, 12 or 24 hours of treatment incubation cells were washed three times in PBS, and lysed by douncing using scrapers and sheer force though syringe with a 34 gauge needle in assay buffer (Abeam Thioredoxin Reductase Assay kit, ab83463) added to 1 mM protease inhibitor cocktail (Abeam, ab65621). The lysates were centrifuged at 10,000×g for 15 minutes at 4° C. to isolate insoluble material. The total protein concentrations of soluble lysates were measured using the BCA Protein Assay (Life Technologies). The soluble lysates were incubated for 20 minutes in assay buffer with a proprietary thioredoxin reductase specific inhibitor before adding a specific substrate, DTNB (5, 5′-dithiobis(2-nitrobenzoic) acid), and measuring activity at 1 minute intervals for 30 minutes using the BioTek fluorescence microplate reader (BioTek U.S., Winooski, Vt.) set at =412 nm. Lysates were tested in duplicate. TrxR activity was calculated based on the linear amount of TNB produced per minute per mg of total protein and corrected for background activity from enzymes other than TrxR in the lysates.
# [9] = Pharmacokinetics in blood/plasma (ICP-MS, gold content)
# Description: Blood was collected by retro-orbital bleeding into heparinized blood collection vials on ice at time intervals of 30 minutes, 2 hours, 6 hours, 24 hours, and 48 hours after the first dose.
# Gold and titanium content was determined using ICP-MS. […] The mixture was heated at 90° C. for 5 hours. After cooling, the samples were diluted with water, 40 ppb of Indium internal standard was added and analyzed in a Thermo Scientific XSERIES 2 ICP-MS with ESI PC3 Peltier cooled spray chamber with SC-FAST injection loop and SC-4 autosampler. All the elements were analyzed using He/H2 collision-reaction mode. Plasma from control mice was spiked with the test compounds to determine the extraction efficiency of gold and titanium.
# Pharmacokinetic estimates were obtained from the plasma concentration-time profiles by non-compartmental analysis.
substance,measurement,setting,value
[(η-C5H5)2TiMe(μ-mba)Au(PPh3)] [Compound 2],decrease in tumor size (shrinkage) from the starting volume,"[1]; between day 1 and day 28 of treatment, total of 14 doses",67%
same,Primary Tumor,"[1]; tumor measured on day 28, after 14th dose, every other day dosing (compound 6 […], compound 2 3 mg/kg)",41.33 ± 13.00 mm^3
same,weight loss in treated mice,"[1]; xenograft protocol, 14 doses every other day",no weight loss
same,IC50,[2],490 ± 0.8 nM
same,IC50,[3],2670 ± 120 nM
same,IC50 UO31,[4],nanomolar range
same,half-life in DMSO-d6,[5]; DMSO-d6,eight
same,half-life fold larger than corresponding compound 6 / compound 7,"[5]; DMSO-d6, same solvent",sixteen
same,UV-vis spectra over time,"[5]; micromolar concentration in 1:99 DMSO/PBS, 23 h, physiological pH",did not change over time
same,"solubility in DMSO/water, DMSO/PBS and DMSO/media (1:99) mixtures",[6],soluble
same,expression of p90-RSK,[7],dramatic decreases in expression
same,inhibition of thioredoxin reductase activity,"[8]; Caki-1 cells, 5 μM, five hour incubation",31.6%
same,IC50,"[8]; read-out: IC50 thioredoxin reductase in Caki-1 cells, after twelve hours",880 nM
same,blood concentration at the time of the second dose,"[9]; 48 hours after the first dose, 3 mg/kg",40400 ± 6000 ng/mL
same,absorption into blood,[9]; blood levels up to twenty-four hours,slow absorption
